Values joined by “and” are separate entries in the source; they are usually repeats but may differ in a detail not shown here. Equal entries are not always repeated.
Legend:
[1] = Molar enthalpy of transition or fusion; conditions: Crystal; DSC
[2] = for vapor or sublimation pressure: Closed cell (Static) method; for Normal melting temperature: DTA

Oc1ccc(I)cc1 [4-iodophenol]
Conditions | Molar enthalpy of transition or fusion [kcal/mol]
[1] | 4.97

vapor or sublimation pressure [kPa], [2]
Conditions | Crystal | Liquid
307.15 K | 0.00064 | –
309.13 K | 0.00079 | –
311.09 K | 0.00098 | –
313.1 K | 0.00123 | –
315.1 K | 0.00152 | –
317.05 K | 0.00189 | –
319.1 K | 0.00236 | –
321.01 K | 0.00288 | –
323.01 K | 0.00353 | –
325.06 K | 0.00436 | –
326.95 K | 0.00527 | –
329.02 K | 0.00647 | –
330.91 K | 0.00781 | –
332.98 K | 0.00956 | –
334.88 K | 0.01147 | –
336.93 K | – | 0.02432
336.95 K | 0.01399 | –
338.83 K | 0.01662 | –
338.84 K | – | 0.02795
340.71 K | – | 0.03222
340.9 K | 0.02012 | –
342.72 K | – | 0.03713
342.79 K | 0.02397 | –
344.73 K | – | 0.04253
344.86 K | 0.02883 | –
346.71 K | 0.03411 | –
346.73 K | – | 0.04894
348.71 K | – | 0.05593
348.82 K | 0.04092 | –
350.67 K | 0.0482 | –
350.69 K | – | 0.06373
352.67 K | – | 0.07262
352.76 K | 0.05731 | –
354.59 K | 0.06713 | –
354.62 K | – | 0.08281
356.58 K | – | 0.09387
356.72 K | 0.07984 | –
358.58 K | 0.09351 | 0.1065
360.56 K | – | 0.1204
360.65 K | 0.1108 | –
362.52 K | – | 0.1359
364.52 K | – | 0.1533
366.46 K | – | 0.1729
368.57 K | – | 0.1961
370.44 K | – | 0.2178
372.51 K | – | 0.2463
374.38 K | – | 0.2725
376.46 K | – | 0.3075
378.32 K | – | 0.3409
380.41 K | – | 0.382

Conditions | Normal melting temperature [°C]
[2], Crystal | 92.7

Oc1ccc(Cl)cc1 [4-chlorophenol]
Conditions | Molar enthalpy of transition or fusion [kcal/mol]
[1] | 3.35

vapor or sublimation pressure [kPa], [2]
Conditions | Crystal | Liquid
273.48 K | – | 0.00084
273.5 K | 0.00039 | –
275.43 K | 0.00049 | –
275.44 K | – | 0.00104
277.42 K | 0.00063 | 0.00128
279.38 K | 0.00081 | 0.00158
281.38 K | 0.00103 | 0.00192
283.35 K | 0.0013 | –
283.37 K | – | 0.00234
285.33 K | – | 0.00286
285.35 K | 0.00166 | –
287.31 K | 0.00208 | –
287.32 K | – | 0.00345
289.31 K | 0.00262 | 0.00418
291.28 K | – | 0.00507
291.31 K | 0.00327 | –
293.28 K | 0.00406 | 0.00606
295.27 K | 0.00505 | –
295.32 K | – | 0.00733
297.25 K | – | 0.00872
297.26 K | 0.00624 | –
299.21 K | 0.00766 | –
299.23 K | – | 0.01048
301.2 K | – | 0.01241
301.23 K | 0.00951 | –
303.19 K | – | 0.01472
303.2 K | 0.01166 | –
305.18 K | 0.01436 | 0.01741
307.16 K | 0.01755 | –
307.18 K | – | 0.02059
309.14 K | 0.02132 | 0.02426
311.11 K | – | 0.02854
311.14 K | 0.02603 | –
313.12 K | – | 0.03332
315.06 K | – | 0.03907
317.07 K | – | 0.04539
319.03 K | – | 0.05279
321.14 K | – | 0.06178
323.09 K | – | 0.07108
325.09 K | – | 0.08208
327.04 K | – | 0.09417
329.04 K | – | 0.1088
331.02 K | – | 0.1249

Conditions | Normal melting temperature [°C]
[2], Crystal | 43.8

Oc1ccc(F)cc1 [4-fluorophenol]
Conditions | Molar enthalpy of transition or fusion [kcal/mol]
[1] | 3.47

vapor or sublimation pressure [kPa], [2]
Conditions | Crystal | Liquid
265.62 K | 0.00084 | –
267.58 K | 0.00108 | –
269.54 K | 0.00137 | –
271.5 K | 0.00174 | –
273.49 K | 0.00222 | –
275.43 K | 0.00279 | –
277.43 K | 0.00353 | –
279.39 K | 0.00443 | –
281.38 K | 0.00555 | –
283.36 K | 0.00696 | –
285.33 K | 0.00863 | –
287.34 K | 0.01071 | –
289.29 K | 0.01329 | –
291.3 K | 0.01648 | –
291.39 K | – | 0.02895
293.29 K | 0.02028 | –
293.35 K | – | 0.03339
295.26 K | 0.02476 | –
295.34 K | – | 0.0394
297.24 K | 0.03044 | –
297.32 K | – | 0.04637
299.25 K | 0.03741 | 0.05448
301.19 K | 0.04503 | –
301.24 K | – | 0.06387
303.21 K | 0.05518 | –
303.22 K | – | 0.07471
305.19 K | 0.06658 | –
305.24 K | – | 0.08751
307.18 K | 0.08105 | –
307.21 K | – | 0.1019
309.16 K | 0.09599 | –
309.2 K | – | 0.1187
311.12 K | 0.1152 | –
311.17 K | – | 0.1369
313.11 K | 0.1383 | –
313.15 K | – | 0.1588
315.06 K | – | 0.1811
315.1 K | 0.1647 | –
317.01 K | – | 0.2084
317.07 K | 0.197 | –
319.02 K | – | 0.2365
321.01 K | – | 0.2738
323.1 K | – | 0.3152
325.09 K | – | 0.3611
327.06 K | – | 0.4129
329.05 K | – | 0.4644
331.02 K | – | 0.5332
333.01 K | – | 0.5995
335 K | – | 0.6828
336.96 K | – | 0.7646
338.93 K | – | 0.8651
340.78 K | – | 0.9558
342.84 K | – | 1.084

Conditions | Normal melting temperature [°C]
[2], Crystal | 47.2

Oc1ccc(Br)cc1 [4-bromophenol]
Conditions | Molar enthalpy of transition or fusion [kcal/mol]
[1] | 4.04

vapor or sublimation pressure, [2]
Conditions | Crystal | Liquid
285.34 K | 0.00035 kPa | –
287.33 K | 0.00046 kPa | –
289.29 K | 0.00057 kPa | –
291.33 K | 0.00073 kPa | –
293.31 K | 0.00092 kPa | –
295.29 K | 0.00116 kPa | –
297.25 K | 0.00146 kPa | –
299.23 K | 0.00182 kPa | –
301.2 K | 0.00229 kPa | –
303.18 K | 0.00286 kPa | –
303.2 K | – | 0.00555 kPa
305.19 K | 0.00358 kPa | –
305.2 K | – | 0.00661 kPa
307.17 K | 0.00441 kPa | –
307.18 K | – | 0.00784 kPa
309.12 K | 0.00541 kPa and 0.0054 kPa | –
309.17 K | – | 0.00932 kPa
311.05 K | 0.00664 kPa | –
311.16 K | – | 0.01099 kPa
313.09 K | 0.00818 kPa | –
313.12 K | – | 0.01288 kPa
315.08 K | 0.01002 kPa | –
315.09 K | – | 0.01516 kPa
316.89 K | – | 0.01755 kPa
317.09 K | 0.01219 kPa | –
318.6 K | – | 0.02013 kPa
319.01 K | 0.01482 kPa | –
320.72 K | – | 0.02383 kPa
320.99 K | 0.01805 kPa | –
323.03 K | 0.02185 kPa | 0.02842 kPa
324.98 K | 0.02644 kPa | –
325.02 K | – | 0.03304 kPa
326.97 K | 0.03198 kPa | 0.03827 kPa
328.93 K | 0.03838 kPa | –
328.95 K | – | 0.04429 kPa
330.89 K | – | 0.05121 kPa
330.93 K | 0.0461 kPa | –
332.9 K | – | 0.05904 kPa
334.9 K | – | 0.06804 kPa
336.81 K | – | 0.07806 kPa
338.78 K | – | 0.0882 kPa
340.82 K | – | 0.1022 kPa
342.8 K | – | 0.1163 kPa
344.73 K | – | 0.132 kPa
346.82 K | – | 0.1517 kPa
348.66 K | – | 0.1712 kPa
350.78 K | – | 0.1945 kPa
352.64 K | – | 0.2188 kPa
354.73 K | – | 0.2475 kPa
356.58 K | – | 0.2774 kPa
358.68 K | – | 0.3129 kPa
360.5 K | – | 0.3497 kPa
362.61 K | – | 0.3938 kPa
364.5 K | – | 0.4391 kPa
366.58 K | – | 0.4925 kPa
368.3 K | – | 0.549 kPa
370.51 K | – | 0.6102 kPa

Reference: the NIST ThermoML archive (doi:10.1016/j.jct.2013.05.047)
